melting point | SMILES
189 to 191 °C | CS(=O)(=O)Cc1ccc(C(=NNC(N)=O)c2ccc(Cl)cc2)cc1
58 to 61 °C | CCN(CC)CC(O)CONC(=O)NC(C)(C)C (stereo not given)
99 to 102 °C | CCCCCCN1CCN(Cc2ccc(N)cc2)C(=O)C1=O
208 to 210 °C | CCOC(=O)NN=Cc1nc(C)[nH]c1C
136 °C | NC(=O)N1CCCN(NC(=O)OCc2ccccc2)C1=O
279 to 281 °C | Cc1cc2c(-c3cccnc3)c(CC(=O)O)c(=O)oc2cc1Cl
70 to 74 °C | COc1cc(CC(=O)N[C@@H](COC(=O)C(C)(C)C)Cc2ccccc2)ccc1OCCN
325 to 327 °C | O=C(O)c1n[nH]c(C(=O)O)c1[N+](=O)[O-]
68 to 75 °C | CN(C)Cc1cc(-c2c(-c3ccc(F)cc3)nn3c(Cl)cccc23)nc(NC2CCCC2)n1
202 to 203 °C | CC1(C)Oc2cc(C#N)c(C#N)cc2O1
198 to 199 °C | COC(=O)c1cccc2c1c1c(n2Cc2ccccc2)CN(Cc2ccccc2)CC1=O
212 to 214 °C | CNC(=O)C1=C(c2ccccc2)OC(c2ccccc2)CC1=O (stereo not given)
91 to 93 °C | Cc1c(SCCN2CCOCC2)ccnc1CSc1nc2ccccc2s1
105 °C | Cn1c(C#N)c(F)n(-c2ccc(Cl)cc2)c1=O
74 to 76 °C | COc1c(C)c(C)c2c(c1C)CC(CC(=O)O)O2 (racemic)
169 to 170 °C | O=C(CCc1ccccc1)Nc1cc(-c2nnc(CCc3cccc(C(F)(F)F)c3)o2)ccn1
157 to 159 °C | Cc1ccc(NC(=O)NCc2ccc3c(c2)CN(C2CCC(=O)N(COC(=O)C4CCN(C(=O)OC(C)(C)C)CC4)C2=O)C3=O)cc1Cl (stereo not given)
120 to 122 °C | COc1cccc(NC(=O)NCC2(c3ccccc3)CCCCC2)c1
78 to 90 °C | O=C(O)Cc1c(-c2ccccc2)nn2cccnc12
305 °C | COc1ccc2nc3c(c(-c4ccc(C(F)(F)F)cc4)c2c1)CNC3=O
154 to 155 °C | N#CC(C#N)(COc1ccccc1Cl)NC(=O)c1ccc(OC(F)(F)F)cc1
174 to 175 °C | Cn1c(Cl)c(C(=O)C(=O)N2CCCC2)c2ccc(Cl)cc21
195 to 196 °C | Cc1ccn2c(C)c(CCc3ccc4nc(NC(=N)N)oc4c3)nc2c1
192 to 195 °C | CCONC(=O)c1nc(-c2ccc(Cl)c(OC)c2F)cc(N)c1Cl
55 to 60 °C | Cc1nc(C#Cc2ccccc2)sc1C

melting point | SMILES
149 to 150 °C | CCOC(=O)C(C)(C)Oc1ccc(-c2ccc(CCNC(=O)c3ccc(OC)cc3)cc2)cc1
140 to 143 °C | CC(=O)Nc1c(C(=O)c2ccc(C)cc2)[nH]c2cc(Cl)ccc12
220 to 223 °C | NC(=O)Cc1ccc(-c2ccc3nnn(Cc4ccc5ncccc5c4)c3n2)cc1
143 to 148 °C | Cn1ccc2cc(C(=N)Nc3cccc(NC(=O)C=Cc4ccccc4)c3)ccc21
99 to 100 °C | COc1ccc(-c2ccc(C=O)cc2)cc1
262 to 265 °C | CCN(CC)C(=O)c1c2nc3c(C(=O)N(CC)CC)c(N)c(O)c(C)c3oc-2c(C)c(=O)c1N
162 to 164 °C | CCCCCCCNC(=O)Nc1ccccc1C=Cc1cc(C(C)(C)C)c(O)c(C(C)(C)C)c1
180 to 182 °C | COc1ccccc1[C@H](c1cccc2ccccc12)[C@@](C)(C#N)C(=O)N1CCN(c2cccc(Br)c2)CC1
83 to 84 °C | C#CCNc1onc(-c2ccccc2)c1Cl
189 to 191 °C | COc1ccc(Cn2c(=O)c(=NNc3ccccc3)c(=O)n(CCC(C)C)c3ccccc32)cc1
206 to 207 °C | O=C(NCCCn1ccc2cc(NC(=O)c3nc4ccc(Cl)cc4n3Cc3ccccc3)ccc21)c1cccnc1
185 to 189 °C | CC(=O)Nc1ccc(Br)c2c1CCCC2
155 to 158 °C | Cc1ccc(S(N)(=O)=O)cc1C(C)O (stereo not given)
108 to 109 °C | C=C(C)CN(CCC12CC3CC(CC(C3)C1)C2)C(=O)NCCCc1ccncc1
84 to 86 °C | CCCCCCCCCCS(=O)(=O)CCCOCCn1c(CCC)nc2c(N)nc3ccccc3c21
259 to 260 °C | c1cnc(NCc2ccc3c(c2)-c2[nH]nc(-c4ccsc4)c2C3)nc1
> 260 °C | O=C1CCC(N2C(=O)c3cccc(CNC(=O)c4cnc5ccccc5n4)c3C2=O)C(=O)N1 (stereo not given)
167 to 168 °C | COc1cc(OC)c(-c2cccs2)cc1/C=C/C(=O)c1ccc(S(=O)(=O)NCC(F)(F)F)cc1
206 °C | CCOC(=O)c1c(N2CCN(C=O)CC2)c2cc(F)ccc2n(Cc2ccccc2)c1=O
173 to 174 °C | O=C1C(=O)N2c3c(cc(Cl)cc31)CCC2c1ccccc1 (stereo not given)
79 to 81 °C | CCOc1ccc(CCCc2ccncc2)cc1
89 to 90 °C | CCCCCc1nc(C(=O)OCC)c(C)[nH]1
158 to 162 °C | Oc1cccc(NCc2ccccc2)n1
81 to 82 °C | CNC(=O)c1cccc(NC(=O)Cc2cc(OC)c(OC)c(OC)c2)c1
114 to 116 °C | Cc1ccc(S(=O)(=O)CCCC(=O)c2ccc(F)cc2)cc1

More lines, now with the values behind:

SMILES | melting point
C=CCOn1cnc2c(Cl)nc(N)nc21 | 137 to 139 °C
O=C1N(Cc2ccc(Cl)cc2)c2ccccc2C1(O)CC(F)(F)c1cccs1 (stereo not given) | 121 to 123 °C
COc1ccc(S(=O)(=O)N(C(=O)C(F)(F)F)c2ccc(Cl)cc2Cc2c(F)cccc2F)cc1OC | 79.7 °C
COc1ccc2c(c1O)N=CC1CCCN1C2=O (stereo not given) | 150 to 153 °C
Cn1c(C(F)(F)F)cc(=O)n(-c2ccc3snc(C4OCCCS4)c3c2)c1=O (stereo not given) | 125 to 130 °C
N#CC1(Nc2ccccc2)CCN(C2c3ccccc3-c3ccccc32)CC1 | 165 °C
COc1cc(C(=O)CC(=O)C(C)(C)C)cc(OC)c1OC | 67.3 to 68.4 °C
COc1ccc2cccc(C(=O)C(N)=O)c2c1 | 112 °C
CC(C)[C@@H](C(=O)N[C@@H](Cc1ccccc1)[C@@H](O)[C@H](O)[C@H](Cc1ccccc1)NC(=O)[C@H](C(C)C)N(C)C)N(C)C | 200 to 204 °C
CCOC(=O)C=Cc1ccc(OC(C)c2nc(-c3ccccc3)oc2C)c(OC)c1 (stereo not given) | 121 to 122 °C
Cc1ccc2oc(=O)c(C(=O)Oc3cc([N+](=O)[O-])ccc3[N+](=O)[O-])cc2c1 | 225 to 229 °C
CCCc1cc2c(cc1C=NO)OCO2 | 83 °C
Cc1nc2ccc(OC3SCC(O)C(O)C3O)cc2s1 (stereo not given) | 184 °C
O=[N+]([O-])c1ccc(S(=O)(=O)NCc2ccccc2C(F)(F)F)c([N+](=O)[O-])c1 | 157 to 158 °C
CN1CCN(c2ccnc3c(NC(=O)c4c(Cl)cccc4Cl)cccc23)C1=O | 238 to 242 °C
O=C1c2ccccc2CN1CC1CCN(CCc2c[nH]c3ccccc23)CC1 | 225 to 230 °C
COc1cccc2c1C(=O)C(c1c(Cl)cccc1Cl)C2=O (stereo not given) | 163 to 165 °C
CN1C(=O)c2cccnc2Nc2cc([N+](=O)[O-])ccc21 | 275 to 278 °C
C=CCc1c(O)c(=O)[nH]c2ccccc2c1=O | 174 to 175 °C
O=S1(=O)c2cccc3cccc(c23)N1CCCCN1CCN(c2nsc3ccccc23)CC1 | 123 °C
CCc1cc(S)n2nccc2n1 | 178 to 180 °C
CCCCNc1c(C(=O)OCC)c(C)nc(S)c1[N+](=O)[O-] | 140 to 142 °C
OCc1ccc(N(c2ccccc2)c2ccccc2)cc1 | 104 to 105 °C
CC(C)(C(=O)OCC(=O)c1ccccc1)n1c(=O)[nH]c2ccc(F)cc2c1=O | 192 to 193 °C
Cc1cc(C2=C(c3cccc(F)c3)C(=O)C(C)(C)O2)ccc1S(C)(=O)=O | 138 to 139 °C

SMILES | melting point
Cc1cc(C)c2cnc(=O)n(CCN(C)C)c2n1 | 137 to 139 °C
CCOc1ccc(NC(N)=S)cn1 | 142 to 146 °C
CCCc1c(C(=O)C(C)C)c2ccc(C(=O)O)cc2n1Cc1ccccc1[N+](=O)[O-] | 214 to 215 °C
O=c1[nH]c2cccc(Cl)c2c2cc(CO)nn12 | 295 to 296 °C
COc1cc(N2CCC(N3CCN(C(=O)OCc4ccccc4)CC3)CC2)ccc1Nc1ncc2ccc(-c3ccccc3OC)n2n1 | 75 to 76 °C
Cc1nc(N2CCCC(Cc3ccc(F)cc3)C2=O)sc1C(=O)NCc1ccccc1 (stereo not given) | 154 to 155 °C
COC(=O)N1Cc2nc(C(=O)O)cn2-c2ccccc21 | 204 to 208 °C
COc1ncc(Cl)c(C)c1Br | 44 to 45 °C
C[C@@H](NC(=O)c1ccc(-c2cc(C(F)(F)F)nn2C)s1)[C@](O)(Cn1cncn1)c1ccc(F)cc1F | 106 to 110 °C
CC1(C)COc2ccc(C(F)(F)F)cc2C(O)(c2ccccn2)C1 (stereo not given) | 116 °C
CC(C)(C)OC(=O)N1C2CCC1C(=O)C2 (stereo not given) | 60 to 62 °C
Cc1c(Cl)nc(N2CCNCC2)nc1NC(C)C | 199 °C
CCCCCCCNc1nc(C)c(O)c(=O)[nH]1 | 233 to 235 °C
CCN(CC)c1ccc2nc3c4ccccc4c(=Nc4nc5ccc(Cl)cc5s4)cc-3oc2c1 | 229 to 231 °C
Cc1cc(C(=O)CC(=O)C(F)(F)F)c(F)cc1Cl | 59 to 60 °C
BrCc1cccc2c(-c3ccccc3)onc12 | 125 to 126 °C
Cc1cc2c(-c3ccccc3Cl)c(NC(=O)Nc3ccccc3)c(=O)n(C)c2cc1C | 218 to 219 °C
C[C@]1(COc2ccc(N3CCC(Oc4ccc(OC(F)(F)F)cc4)CC3)nc2)Cn2cc([N+](=O)[O-])nc2O1 | 186 to 187 °C
CCCCCCCCCCCCCCC(NC(C)=O)(C(=O)OCC)C(=O)OCC | 58.5 to 60.5 °C
Brc1cccc2c1Sc1c(Br)cccc1S2 | 176 to 178 °C
c1cc2c3c(c1)[C@@H]1CCC[C@@H]1N3CCNC2 | 57 to 59 °C
CCN(CC)CCNc1nc(N)nc(-c2cc(Cl)ccc2Cl)n1 | 141 to 142 °C
COC(=O)C1Oc2ccc(F)cc2C(C)(c2ccccc2)O1 (stereo not given) | 95 °C
Cc1c(NC(=O)c2ccc(OCC3CCOC3)cc2)ccc2cc(CN3CCC(C)(O)CC3)cnc12 (stereo not given) | 160 to 162 °C
COc1ccc(C)cc1NC(=O)Nc1ccc(N2CCN(C(=O)Nc3cc(OCCO)ccc3Cl)CC2)cc1 | 121 to 124 °C

Reference: a melting point compilation (Tetko et al.; mined from patent text by program, amines drawn as free bases though some values may be those of a salt)
